Reference: US11484529B2, “Desmethylanethole trithione derivatives for the treatment of diseases linked to mitochondrial reactive oxygen species (ROS) production” (OP2 Drugs, priority 2017, dated 2022)

Tests used:
H460 carcinoma cells = experiment: Transwell cell migration (metastatic activity); type: cell-based, human; conditions: 100 μM NAC, 16 hours
Procedure: Cell migration assays were performed in Transwells (Corning Inc., 8.0-μm pore size). For migration assay, 2·10^4 cells in serum-free medium were added to the upper wells. Media containing 10% FBS were added to the lower wells. Cells that migrated through the filter after 16 hours were stained with 0.2% crystal violet and counted using the software Image J.
The Transwell test of cell migration has been utilized for this assay and the migration of H460 carcinoma cells has been measured in the presence of two different concentrations of AOX (5 and 10 μM) and compared to the effect of 100 μM N-acetyl cystein (NAC) as a positive control of cytosolic ROS production (FIG. 25).

site IQ = experiment: ROS/H2O2 production, site targeted individually (96-well Amplex Red), 10 mM succinate alone; type: biochemical, rat; conditions: 0 to 80 μM; effect at concentrations as low as 2.5 μM
Procedure: After freshly isolating mitochondria from rat heart, then measuring protein quantity of the mitochondrial suspension, H2O2 production in response to the exogenous addition of increasing concentrations of AOL, AOX and Oltipraz was measured fluorimetrically with Amplex Red and horseradish peroxidase (HRP).
The two major sites of mitochondrial ROS/H2O2 production were targeted individually using the combination of succinate (energy substrate of respiratory complex 2) and known inhibitors of respiratory chain, namely for site IQ, 10 mM succinate alone (CCCP as positive control) and for site IIIQouter, 10 mM succinate, 4 μM rotenone and 2.5 μM antimycin A (myxothiazol as positive control). These “reaction” solutions were designed to generate maximal rates of ROS/H2O2 production predominantly from a single site within the chain (Quinlan et al. 2013. Redox Biol. 1:304-12).
For measurement, a working solution of 50 μM Amplex red reagent and 20 μg/ml HRP was mixed to the reaction buffer into the corresponding wells of a 96-well plate (Greiner 96 F-bottom), in the absence or presence of increasing concentrations (from 0 to 80 μM) of AOL, AOX or Oltipraz. Addition of mitochondria to a final concentration of 0.125 mg/mL per well initiated the assay. The appropriate total volume per microplate well was 200 μL.
Plates were incubated in the dark at room temperature for 20-25 minutes. A double orbital shaking (100 rpm-3 seconds) was applied before reading the endpoint fluorescence values on a CLARIOstar plate reader (BMG LABTECH GmbH, Germany). In fact, H2O2 reacts with Amplex Red in a 1:1 stoichiometry, yielding the fluorescent compound resorufin that was analyzed using the following optic settings (excitation wavelength at 546-20 nm; emission at 600-40 nm; gain: 750).
Also, an H2O2 standard curve, with concentrations ranging from 0 to 5 μM, was prepared in the experimental buffer that consisted in (in mM): 140 sucrose, 100 KCl, 1 EGTA, 20 MgCl2, 10 KH2PO4, and 1 g/L (w/v) BSA essentially fatty acid free (pH 7.2). […]

NAD(P)H oxidase = experiment: Non-mitochondrial ROS/H2O2 production by NAD(P)H oxidase (Amplex Red); type: biochemical; conditions: 10 to 100 μM; no mitochondria
Procedure: Rates of ROS/H2O2 production from heart mitochondria were assessed through the oxidation of the colorless, non-fluorescent indicator Amplex Red in the presence of exogenous horseradish peroxidase (HRP, EC 1.11.1.7, Sigma). H2O2 reacts with Amplex Red in a 1:1 stoichiometry, yielding the fluorescent compound resorufin (excitation: 560 nm; emission: 585 nm) which is stable once formed. Fluorescence was measured continuously with a spectro-fluorometer equipped with temperature control and stirring (SAFAS Xenius, Monaco). Isolated mitochondria (0.1 mg/mL) were incubated in the same experimental buffer than previously, supplemented with 15 μM Amplex Red and 10 μg/mL HRP. Glutamate (5 mM)/malate (2.5 mM) together with succinate (5 mM) were used as complex I and complex II substrates, respectively. Experiments were conducted under non-phosphorylating conditions in the presence of 15 μM atractyloside, i.e., under state IV conditions where […]. Afterwards, rotenone (1.5 μM), antimycin A (2 μM), and myxothiazol (0.2 μM) were sequentially added to inhibit the redox centers within the electron transfer chain (FIG. 2), namely sites IQ, IF (with rotenone), IIIQi (with antimycin A) and IIIQO (with myxothiazol). Assay was finally calibrated with known amounts of H2O2 (steps of 300 nM), in the presence of all relevant compounds, including AOL. The control test of the absence of effect of AOL on the Amplex Red assay itself and NAD(P)H oxidase ROS/H2O2 production was carried out in the absence of cardiac mitochondria and the presence of NAD(P)H oxidase (EC 1.6.3.3, 5 mU/mL, Sigma) and NADH (100 μM) solutions.
The specificity of AOL was further tested in vitro using the peroxidase-Amplex Red system utilized for the measurement of ROS/H2O2 by mitochondria, which in fact measures the appearance of H2O2 by the oxidation of Amplex Red to the fluorescent resorufin (see FIG. 4). In the absence of mitochondria and by adding instead a H2O2-producing system to the measuring system, it was possible to test the effect of AOL on this system. This has been carried out by using commercial NAD(P)H oxidase which produces H2O2 in the presence of added NAD(P)H and measuring the reduction of Amplex Red to resorufin (FIG. 4).
Isolated mitochondria (0.1 mg/mL) were incubated in the same experimental buffer than previously, supplemented with 15 μM Amplex Red and 10 μg/mL HRP. Glutamate (5 mM)/malate (2.5 mM) together with succinate (5 mM) were used as complex I and complex II substrates, respectively. Experiments were conducted under non-phosphorylating conditions in the presence of 15 μM atractyloside. Afterwards, rotenone (1.5 μM), antimycin A (2 μM), and myxothiazol (0.2 μM) were sequentially added to inhibit the redox centers within the electron transfer chain (see FIG. 2), namely sites IQ, IF (with rotenone), IIIQi (with antimycin A) and IIIQO (with myxothiazol). Assay was finally calibrated with known amounts of H2O2 (steps of 300 nM), in the presence of all relevant compounds, including AOX. The control test of the absence of effect of AOL, AOX and Oltipraz on the Amplex Red assay itself and NAD(P)H oxidase […] production was carried out in the absence of cardiac mitochondria and the presence of NAD(P)H oxidase (EC 1.6.3.3, 5 mU/mL, Sigma) and NADH (100 μM) solutions.
The mechanism of action of AOX was further tested in vitro using the peroxidase-Amplex Red system utilized for the measurement of ROS/H2O2 by mitochondria, which in fact measures the appearance of H2O2 by the oxidation of Amplex Red to the fluorescent resorufin (FIG. 22). In the absence of mitochondria and by adding instead a H2O2-producing system to the assay, it was possible to test the effect of AOX on this non-mitochondrial superoxide/H2O2 production. This has been carried out by using commercial NAD(P)H oxidase which produces H2O2 in the presence of added NAD(P)H and measuring the reduction of Amplex Red to resorufin. […]

With `CC(=O)N[C@@H](CS)C(=O)O` [NAC, N-acetyl cysteine] the “metastatic activity (cells crossing the membrane)” value (H460 carcinoma cells) was “huge increase in metastatic activity”.
For `Cc1c(-c2cnccn2)ssc1=S` [Oltipraz], the “inhibition of ROS production in site IQ” value (site IQ) was “only a poor effect” and the “effect on ROS measurement with NAD(P)H oxidase” value (NAD(P)H oxidase) was “constantly decreased the amount of ROS measured”.
